From ChEMBL document CHEMBL1201862, “PubChem BioAssay data set” (2004)
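Cells were grown in 96-well plates and exposed to each compound for 48 hours at five concentrations; endpoints were interpolated linearly between bracketing concentrations, or set to the highest concentration if not reached. Here, GI50 denotes the concentration required for 50% inhibition of growth.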 Activity calls are given as the source filed them. Cut-off read from the data, not from the text of the source: active = GI50 up to about 1.1 µM and inactive = higher.

What was measured:
Assay in all cases: NCI tumour cell line growth inhibition, 48 h
NCI-H460 = system: NCI-H460
Malme-3M = system: Malme-3M
PC-3 = system: PC-3
K562 = system: K562
OVCAR-5 = system: OVCAR-5
COLO 205 = system: COLO 205
SW-620 = system: SW-620
HOP-92 = system: HOP-92
A498 = system: A498
Hs-578T = system: Hs-578T
NCI-H522 = system: NCI-H522
BT-549 = system: BT-549
HCT-116 = system: HCT-116
UACC-257 = system: UACC-257
SK-MEL-28 = system: SK-MEL-28
SNB-19 = system: SNB-19
OVCAR-3 = system: OVCAR-3
RPMI-8226 = system: RPMI-8226
T47D = system: T47D
A549 = system: A549
M14 = system: M14
OVCAR-4 = system: OVCAR-4
NCI-H23 = system: NCI-H23
SK-MEL-2 = system: SK-MEL-2
MOLT-4 = system: MOLT-4
HCT-15 = system: HCT-15
KM12 = system: KM12
SN12C = system: SN12C
CCRF-CEM = system: CCRF-CEM
UACC-62 = system: UACC-62
MDA-MB-435 = system: MDA-MB-435
EKVX = system: EKVX
MDA-MB-231 = system: MDA-MB-231
SK-OV-3 = system: SK-OV-3
DU-145 = system: DU-145
SF-295 = system: SF-295
786-0 = system: 786-0
SF-268 = system: SF-268
UO-31 = system: UO-31
IGROV-1 = system: IGROV-1
NCI-H226 = system: NCI-H226
HT-29 = system: HT-29
SR = system: SR
CAKI-1 = system: CAKI-1
LOX IMVI = system: LOX IMVI
ACHN = system: ACHN
SNB-75 = system: SNB-75
SK-MEL-5 = system: SK-MEL-5
TK-10 = system: TK-10
U-251 = system: U-251
MDA-N = system: MDA-N
HCC 2998 = system: HCC 2998
HOP-62 = system: HOP-62
MCF7 = system: MCF7
HL-60 = system: HL-60
SF-539 = system: SF-539
OVCAR-8 = system: OVCAR-8

Measured: GI50

O=C1CCCCC/C1=C\c1ccc(F)cc1
> 100 µM: HCT-15
inactive: NCI-H460 50.1 µM | Malme-3M > 100 µM | PC-3 > 100 µM | K562 > 100 µM | OVCAR-5 > 100 µM | COLO 205 > 100 µM | SW-620 > 100 µM | HOP-92 61.1 µM | A498 > 100 µM | Hs-578T 86.1 µM | NCI-H522 51.5 µM | BT-549 99.1 µM | HCT-116 89.3 µM | UACC-257 52.2 µM | SK-MEL-28 > 100 µM | SNB-19 > 100 µM | OVCAR-3 > 100 µM | RPMI-8226 45.2 µM | T47D > 100 µM | A549 > 100 µM | M14 > 100 µM | OVCAR-4 95.5 µM | NCI-H23 > 100 µM | SK-MEL-2 > 100 µM | MOLT-4 67.3 µM | KM12 > 100 µM | SN12C > 100 µM | CCRF-CEM 24.4 µM | UACC-62 40.3 µM | MDA-MB-435 74.1 µM | EKVX > 100 µM | MDA-MB-231 > 100 µM | SK-OV-3 > 100 µM | DU-145 > 100 µM | SF-295 > 100 µM | 786-0 > 100 µM | SF-268 > 100 µM | UO-31 42.4 µM | IGROV-1 > 100 µM | NCI-H226 > 100 µM | HT-29 > 100 µM | SR 47.6 µM | CAKI-1 > 100 µM | LOX IMVI 94 µM | ACHN > 100 µM | SNB-75 > 100 µM | SK-MEL-5 44.8 µM | TK-10 50.8 µM | U-251 98.6 µM | MDA-N > 100 µM | HCC 2998 > 100 µM | HOP-62 > 100 µM

C=CCOCn1cc(C)c(=O)[nH]c1=O
inactive: NCI-H460 > 100 µM | Malme-3M > 100 µM | PC-3 > 100 µM | K562 > 100 µM | COLO 205 > 100 µM | SW-620 > 100 µM | MCF7 > 100 µM | A498 > 100 µM | Hs-578T > 100 µM | HL-60 > 100 µM | NCI-H522 29.6 µM | BT-549 > 100 µM | HCT-116 > 100 µM | UACC-257 > 100 µM | SK-MEL-28 > 100 µM | SNB-19 > 100 µM | RPMI-8226 > 100 µM | T47D > 100 µM | A549 > 100 µM | M14 > 100 µM | NCI-H23 > 100 µM | MOLT-4 > 100 µM | KM12 > 100 µM | SN12C > 100 µM | CCRF-CEM > 100 µM | UACC-62 > 100 µM | MDA-MB-435 > 100 µM | EKVX > 100 µM | MDA-MB-231 > 100 µM | SK-OV-3 > 100 µM | DU-145 > 100 µM | SF-295 > 100 µM | 786-0 > 100 µM | SF-268 > 100 µM | UO-31 > 100 µM | SF-539 > 100 µM | IGROV-1 > 100 µM | NCI-H226 > 100 µM | HT-29 > 100 µM | SR > 100 µM | CAKI-1 > 100 µM | LOX IMVI > 100 µM | ACHN > 100 µM | SNB-75 > 100 µM | SK-MEL-5 > 100 µM | TK-10 > 100 µM | MDA-N > 100 µM | HCC 2998 > 100 µM | OVCAR-8 > 100 µM | HOP-62 > 100 µM
> 100 µM: HCT-15
